Results from BigSolDB 2.1.

NCC1(CC(=O)O)CCCCC1.O
in water
Conditions | solubility (mole fraction)
283.15 K | 0.0093
288.15 K | 0.0106
293.15 K | 0.0116
298.15 K | 0.0124
303.15 K | 0.0137
308.15 K | 0.0152
313.15 K | 0.0168
318.15 K | 0.0189
323.15 K | 0.0222

NCC1(CC(=O)O)CCCCC1
solubility (mole fraction)
Conditions | 283.15 K | 288.15 K | 293.15 K | 298.15 K | 303.15 K | 308.15 K | 313.15 K | 318.15 K | 323.15 K
in ethanol | 0.00134 | 0.00153 | 0.0017 | 0.00187 | 0.00224 | 0.00243 | 0.00267 | 0.003 | 0.00329
in methanol | 0.00718 | 0.00795 | 0.00878 | 0.00943 | 0.0107 | 0.0117 | 0.0127 | 0.014 | 0.016
